Data as given in PMC11268423 (Science Advances, 2024).

What was measured:
Assay in all cases: microbe, parasite or virus in culture
Format in all cases: cell-based
[1] = test system: SARS-CoV-2 WA-1 (P1); settings: Severe acute respiratory syndrome coronavirus 2, A549-ACE2
[2] = test system: SARS-CoV-2 WA-1 (P1); settings: Severe acute respiratory syndrome coronavirus 2
[3] = test system: SARS-CoV-2 WA-1 strain; settings: Severe acute respiratory syndrome coronavirus 2

Row | Structure (SMILES) | EC50 [1] [nM] | EC50 [2] [nM] | EC50 [3] [nM] | EC90 [3] [nM]
1 | CC(C)(C)[C@H](NC(=O)C(F)(F)F)C(=O)N1C[C@H]2[C@@H]([C@H]1C(=O)N[C@H](C#N)C[C@@H]1CCNC1=O)C2(C)C [Nirmatrelvir] | 54 | 34.8 | 150 | 370
2 | CCC(CC)COC(=O)[C@H](C)N[P@](=O)(OC[C@H]1O[C@@](C#N)(c2ccc3c(N)ncnn23)[C@H](O)[C@@H]1O)Oc1ccccc1 [Remdesivir] | 75 | 29.1 |  | 
